Laboratory results published in patent publication US7838528B2, “Substituted bicyclic 8-pyrrolidinoxanthines, methods for their production, pharmaceutical formulations and their use” (sanofi-aventis Deutschland GmbH, priority 2004, dated 2010).
Where a name gives a salt, the structure may show the parent alone.

These compounds were tested against T1, DPP-IV from porcine kidney (Sus scrofa, UniProt P22411) (assay: Measurement of the DPP-IV activity (H-Ala-Pro-AFC fluorimetric assay)). Details: H-Ala-Pro-AFC 15 μM, DPP-IV 1 mU/ml, Tris/HCl pH 7.4, room temperature.
T1 construct: DPP-IV from porcine kidney (Sigma Chemical GmbH, Munich DE); purchased Sigma Chemical GmbH, Munich DE; host or cells: porcine kidney (tissue-derived enzyme)
Type: biochemical
Protocol: Measurement of the DPP-IV Activity: […]
a) DPP-IV from porcine kidney (Sigma Chemical GmbH, Munich DE) b) H-Ala-Pro-AFC (Bache Chemical Co., Weil am Rheine DE) […]
c) DPP-IV (1 mU/ml, final concentration) d) H-Ala-Pro-AFC (15 μM, final concentration) • in Tris/HCl (40 mM, pH 7.4), total volume 0.2 ml The reaction was carried out at room temperature at different reaction times (typically 10 min) and stopped at the end of the reaction by adding 20 μl of ZnCl2 (1 M). The H-Ala-Pro-AFC conversion was determined fluorimetrically by measuring the emission at 535 nm after excitation at 405 nm. When inhibitors were added, the added buffer volume was adapted so that a total volume of 200 μl was maintained for the assay mixture.
IC50 values for inhibitors were determined by varying the inhibitor concentrations with the stated substrate concentration of 15 μM. Ki and Km values were found by appropriate variation of substrate concentration and inhibitor concentration as described (Dixon, M. and Webb, E. C. (1979) Enzymes, third edition, pp. 47-206, Academic Press) which is herein incorporated by reference. The values for Km, IC50 and Ki were calculated using a commercially available software package (Leatherbarrow, R. J. (1992) GraFit Version 3.0, Erithacus Software Ltd. Staines, U.K.).

T1 sequence (P22411 whole entry): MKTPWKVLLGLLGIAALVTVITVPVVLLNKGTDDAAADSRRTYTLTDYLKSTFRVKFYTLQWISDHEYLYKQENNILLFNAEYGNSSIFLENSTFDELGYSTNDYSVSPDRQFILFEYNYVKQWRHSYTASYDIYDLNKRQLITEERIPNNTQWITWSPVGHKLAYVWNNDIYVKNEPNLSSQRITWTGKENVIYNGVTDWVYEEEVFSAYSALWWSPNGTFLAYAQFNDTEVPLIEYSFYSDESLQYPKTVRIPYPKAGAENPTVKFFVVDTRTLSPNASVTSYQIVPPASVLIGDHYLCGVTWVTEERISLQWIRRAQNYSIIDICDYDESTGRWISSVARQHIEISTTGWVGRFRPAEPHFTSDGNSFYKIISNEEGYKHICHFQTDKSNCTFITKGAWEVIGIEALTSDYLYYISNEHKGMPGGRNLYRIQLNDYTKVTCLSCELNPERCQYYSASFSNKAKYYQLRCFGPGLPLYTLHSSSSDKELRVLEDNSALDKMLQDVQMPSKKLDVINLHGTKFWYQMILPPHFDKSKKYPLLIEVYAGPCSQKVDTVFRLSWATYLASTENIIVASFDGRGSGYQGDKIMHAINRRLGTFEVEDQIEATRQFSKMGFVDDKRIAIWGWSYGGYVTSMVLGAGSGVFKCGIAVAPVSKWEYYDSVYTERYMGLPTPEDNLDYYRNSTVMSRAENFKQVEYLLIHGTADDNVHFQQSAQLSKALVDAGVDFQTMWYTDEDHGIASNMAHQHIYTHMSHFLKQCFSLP

| Structure (SMILES) | IC50 |
| --- | --- |
| CC(C)=CCn1c(N2CC[C@@H]3NCC[C@@H]32)nc2c1c(=O)n(CC(=O)c1ccccc1)c(=O)n2C (single isomer, unassigned) [Example 1b, 8-(cis-Hexahydro-pyrrolo[3,2-b]pyrrol-1-yl)-3-methyl-7-(3-methyl-but-2-enyl)-1-(2-oxo-2-phenyl-ethyl)-3,7-dihydro-purine-2,6-dione] | 18 nM |
| CC(C)=CCn1c(N2CC[C@@H]3NCC[C@@H]32)nc2c1c(=O)n(CC(=O)c1ccccc1)c(=O)n2C (relative stereo) [Example 1, 8-(cis-Hexahydro-pyrrolo[3,2-b]pyrrol-1-yl)-3-methyl-7-(3-methyl-but-2-enyl)-1-(2-oxo-2-phenyl-ethyl)-3,7-dihydropurine-2,6-dione hydrochloride] | 34 nM |
| CC(C)=CCn1c(N2CC[C@@H]3NCC[C@@H]32)nc2c1c(=O)n(CC(=O)c1ccccc1)c(=O)n2C (single isomer, unassigned) [Example 1a, 8-(cis-Hexahydro-pyrrolo[3,2-b]pyrrol-1-yl)-3-methyl-7-(3-methyl-but-2-enyl)-1-(2-oxo-2-phenyl-ethyl)-3,7-dihydro-purine-2,6-dione] | 160 nM |
